The text below walks through data of patent publication US20220153732A1, “PROTEIN SECRETION INHIBITORS” (KEZAR LIFE SCIENCES, priority 2019, published 2022).

Holding throughout (type): cell-based
Test [1] relates to human multiple myeloma cell line NCI-H929. The test is described as follows: H929 Cell Viability Assay. The conditions noted are these: read-out: 48 hr H929 Viability Celltiter-Glo: Mean EC50. Here is the method: Plates were incubated at 37° C., 5% CO2 for 48 hours. After 48 hours, Celltiter-Glo® (Promega) was added to each well and luciferase signal was quantified using Tecan Infinite M1000 Pro for cell viability determination.
(§1) For chemical structures that include one or more stereoisomers, but are illustrated without indicating stereochemistry, the assay data refers to a mixture of stereoisomers.
(Cellular ATP, detected with luciferase, serves as a proxy for viable cell number.)

The test system of test [2] is PD1-ss+10aa/Gaussia Luciferase. The test is described as follows: Dox-Induced PD1-ss-Gluc Assay. The conditions noted are these: 293FRT/TO cells, read-out: 24 hr Dox Inducible PD1ssGluc 293FRT/TO: Mean IC50. Here is the method:
(§2) Transfected cells were selected for resistance to the selectable markers Hygromycin and Blasticidin to create a stable cell line that contained the PD1-ss+10aa/Gaussia Luciferase cDNA insert whose expression was regulated under the T-REx™ system. The day before assay, cells were trypsinized and plated in 384-well tissue culture plates. The next day, compound dilutions in DMSO/media containing doxycycline were added to the wells and incubated at 37° C., 5% CO2.
as §1

The test system of test [3] is human multiple myeloma cell line U266B1. Nature of the test: U266 Cell Viability Assay. The note with it: read-out: 48 hr U266 Viability Celltiter-Glo: Mean EC50. The method, then: Cells were plated in 384-well tissue culture plates and treated with compound dilutions in DMSO/media. Plates were incubated at 37° C., 5% CO2 for 48 hours. After 48 hours, Celltiter-Glo® (Promega) was added to each well and luciferase signal was quantified using Tecan Infinite M1000 Pro for cell viability determination.
as §1

The test system of test [4] is TNFα-FL/Gaussia Luciferase. The test is described as follows: Dox Induced TNFα-FL-Gluc Assay. The conditions noted are these: 293FRT/TO cells, read-out: 24 hr Dox Inducible TNFaFLGluc 293FRT/TO: Mean IC50. Here is the method: as §2, with “TNFα-FL/Gaussia” for “PD1-ss+10aa/Gaussia”, “T-RExTM” for “T-REx™”, “CO2. […] For chemical structures that include one or more stereoisomers, but are illustrated without indicating stereochemistry, the assay data refers to a mixture of stereoisomers.” for “CO2.”

In test [5] the test system is IL-2-FL/Gaussia Luciferase. Nature of the test: Dox Induced IL2-FL-Gluc Assay. The note with it: 293FRT/TO cells, read-out: 24 hr Dox Inducible IL2FLGIuc 293FRT/TO: Mean IC50. The method, then:
as §2, with “IL-2-FL/Gaussia” for “PD1-ss+10aa/Gaussia”, “T-RExTM” for “T-REx™”, “CO2. […] For chemical structures that include one or more stereoisomers, but are illustrated without indicating stereochemistry, the assay data refers to a mixture of stereoisomers.” for “CO2.”

The subject of test [6] is HER3-ss+4aa/Gaussia Luciferase. Nature of the test: Dox-Induced Her3-ss-Gluc Assay. The conditions noted are these: 293FRT/TO cells, read-out: 24 hr Dox Inducible Her3(ss + 4)Gluc 293FRT/TO: Mean IC50. The method, then:
Transfected cells were selected for resistance to the selectable markers Hygromycin and Blasticidin to create a stable cell line that contained the HER3-ss+4aa/Gaussia Luciferase cDNA insert whose expression was regulated under the T-REx™ system. The day before assay, cells were trypsinized and plated in 384-well tissue culture plates. The next day, compound dilutions in DMSO/media containing doxycycline were added to the wells and incubated at 37° C., 5% CO2.
as §1

Setting [7] is: 48 hr, NCI-H929 cells, Celltiter-Glo.
[8] abbreviates: U-266, 48 hr, U266B1 cells, Celltiter-Glo.
[9] abbreviates: 24 hr doxycycline induction, Gaussia luciferase signal.

Like-named read-outs stand apart in the source and are kept apart here.

As to `CC(C)c1csc(NC(=O)[C@H]2CCCN2C(=O)c2ccncc2)n1` [Compound B21, (R)-1-isonicotinoyl-N-(4-isopropylthiazol-2-yl)pyrrolidine-2-carboxamide], the EC50 in test [1] (setting [7]) and in test [3] (setting [8]) was more than 25 µM in each case. In addition, the IC50 was more than 25 µM in test [2] (24 hr, doxycycline-induced); more than 25 µM in test [4] (24 hr, doxycycline-induced); more than 25 µM in test [5] (24 hr, doxycycline-induced); more than 25 µM in test [6] (24 hr, doxycycline-induced).

In the case of `COc1ccc([C@@H]2C[C@H]2c2csc(NC(=O)c3cccn3Cc3ccncc3)n2)nc1` [Compound A311], the EC50 in test [1] (setting [7]) was found to be 6.02 µM; in test [3] (setting [8]), 6.23 µM. Further, the IC50 in test [2] (24 hr, doxycycline-induced) came out at 0.175 µM; in test [4] (24 hr, doxycycline-induced), 3.33 µM; in test [5] (24 hr, doxycycline-induced) it was 0.874 µM; in test [6] (24 hr, doxycycline-induced), 0.51 µM.

As for `Cc1csc(N(C)C(=O)c2cccn2Cc2ccncc2)n1` [Compound A118], the EC50 in test [1] (setting [7]) and in test [3] (setting [8]) was more than 25 µM in each case. Also, the IC50 in test [2] (setting [9]), in test [4] (setting [9]), in test [5] (setting [9]) and in test [6] (setting [9]) was more than 25 µM throughout.

`O=C(Nc1nc2ccccc2s1)c1cccn1Cc1ccncc1` [Compound A50, N-(benzo[d]thiazol-2-yl)-1-(pyridin-4-ylmethyl)-1H-pyrrole-2-carboxamide]: the EC50 in test [1] (setting [7]) and in test [3] (setting [8]) was more than 25 µM throughout. Further, the IC50 in test [2] (setting [9]) was 1.29 µM; in test [4] (setting [9]) it was more than 25 µM; in test [5] (setting [9]), 1.45 µM; in test [6] (setting [9]) it was 2.93 µM.

As to `O=C(Nc1nc([C@@H]2CCCN2Cc2ccccc2)cs1)c1cccn1Cc1ccncc1` [Compound A277], the figures for the EC50 in test [1] (setting [7]) and in test [3] (setting [8]) were 18.7 µM and more than 25 µM, respectively. In addition, the IC50 is 0.325 µM in test [2] (setting [9]), 4.06 µM in test [4] (setting [9]), 0.769 µM in test [5] (setting [9]) and 0.819 µM in test [6] (setting [9]).

For the molecule `CO[C@H]1C[C@H](c2csc(NC(=O)c3cccn3Cc3ccncc3)n2)N(c2ccccc2)C1` [Compound A333], the EC50 in test [1] (setting [7]) is 1.48 µM; in test [3] (setting [8]), more than 25 µM. Besides, the IC50 amounted to 0.021 µM in test [2] (24 hr, doxycycline-induced); 0.165 µM in test [4] (24 hr, doxycycline-induced); 0.027 µM in test [5] (24 hr, doxycycline-induced); 0.042 µM in test [6] (24 hr, doxycycline-induced).

With `Cc1cnc(NC(=O)c2cccn2Cc2ccncc2)s1` [Compound A72, N-(5-methylthiazol-2-yl)-1-(pyridin-4-ylmethyl)-1H-pyrrole-2-carboxamide], the EC50 in test [1] (setting [7]) and in test [3] (setting [8]) was more than 25 µM in each case. Further, the IC50 in test [2] (setting [9]) is 2.47 µM; in test [4] (setting [9]) it was more than 25 µM; in test [5] (setting [9]), 22.4 µM; in test [6] (setting [9]) it was 6.11 µM.

As for `O=C(Nc1nc(C2CCc3ccccc3O2)cs1)c1cccn1Cc1ccncc1` (stereo not drawn) [Compound A283], the EC50 was 23 µM in test [1] (setting [7]) and more than 25 µM in test [3] (setting [8]). Besides, the IC50 in test [2] (setting [9]) worked out at 1.35 µM; in test [4] (setting [9]), 7.18 µM; in test [5] (setting [9]), 3.87 µM; in test [6] (setting [9]), 3.07 µM.

For `O=C(Nc1nc(C2CCC2)cs1)c1cccn1Cc1ccncc1` [Compound A31], the EC50 in test [1] (setting [7]) and in test [3] (setting [8]) was more than 25 µM throughout. The IC50 was 0.596 µM in test [2] (setting [9]), 11.8 µM in test [4] (setting [9]), 1.34 µM in test [5] (setting [9]) and 1.63 µM in test [6] (setting [9]).

As to `COCc1cnc(NC(=O)c2cccn2Cc2ccncc2)s1` [Compound A94], the EC50 in test [1] (setting [7]) and in test [3] (setting [8]) was more than 25 µM each time. Further, the IC50 was 14.6 µM in test [2] (setting [9]), more than 25 µM in test [4] (setting [9]), more than 25 µM in test [5] (setting [9]) and more than 25 µM in test [6] (setting [9]).

Turning to `N#Cc1cnc(NC(=O)c2cccn2Cc2ccncc2)s1` [Compound B15], the EC50 in test [1] (setting [7]) and in test [3] (setting [8]) was more than 25 µM in each case. The IC50 is more than 25 µM in test [2] (24 hr, doxycycline-induced); more than 25 µM in test [4] (24 hr, doxycycline-induced); more than 25 µM in test [5] (24 hr, doxycycline-induced); more than 25 µM in test [6] (24 hr, doxycycline-induced).

Consider `O=C(Nc1nc([C@H]2C[C@@H](Oc3ccccc3)C2)cs1)c1cccn1Cc1ccncc1` [Compound A330], for which the results for the EC50 in test [1] (setting [7]) and in test [3] (setting [8]) were 19.2 µM and more than 25 µM, respectively. The IC50 in test [2] (24 hr, doxycycline-induced) was found to be 0.218 µM; in test [4] (24 hr, doxycycline-induced), 3.92 µM; in test [5] (24 hr, doxycycline-induced) it was 1.02 µM; in test [6] (24 hr, doxycycline-induced) it was 0.475 µM.

Consider `O=C(Nc1nc([C@H]2C[C@H](O)CN2c2ccccc2)cs1)c1cccn1Cc1ccncc1` [Compound A326], for which the EC50 in test [1] (setting [7]) is 5 µM; in test [3] (setting [8]) it was more than 25 µM. Further, the IC50 in test [2] (24 hr, doxycycline-induced) was 0.059 µM; in test [4] (24 hr, doxycycline-induced), 0.308 µM; in test [5] (24 hr, doxycycline-induced) it was 0.126 µM; in test [6] (24 hr, doxycycline-induced), 0.201 µM.

Take `Cc1cccc(/C=C\c2csc(NC(=O)c3cccn3Cc3ccncc3)n2)n1` [Compound A355]: the values for the EC50 in test [1] (setting [7]) and in test [3] (setting [8]) were 22.3 µM and 17.2 µM, respectively. Besides, the IC50 turned out to be 0.524 µM in test [2] (24 hr, doxycycline-induced); 9.74 µM in test [4] (24 hr, doxycycline-induced); 11.3 µM in test [5] (24 hr, doxycycline-induced); 3.81 µM in test [6] (24 hr, doxycycline-induced).

For `CC(C)(OCC1CCOCC1)c1csc(NC(=O)c2cccn2Cc2ccncc2)n1` [Compound A40, 1-(pyridin-4-ylmethyl)-N-(4-(2-((tetrahydro-2H-pyran-4-yl)methoxy)propan-2-yl)thiazol-2-yl)-1H-pyrrole-2-carboxamide], the EC50 in test [1] (setting [7]) and in test [3] (setting [8]) was more than 25 µM throughout. The IC50 in test [2] (setting [9]) worked out at 0.858 µM; in test [4] (setting [9]), 12.6 µM; in test [5] (setting [9]) it was 1.21 µM; in test [6] (setting [9]) it was 1.56 µM.

With `CC1(C)CCc2sc(NC(=O)c3cccn3Cc3ccncc3)nc21` [Compound A22, N-(4,4-dimethyl-5,6-dihydro-4H-cyclopenta[d]thiazol-2-yl)-1-(pyridin-4-ylmethyl)-1H-pyrrole-2-carboxamide], the EC50 in test [1] (setting [7]) and in test [3] (setting [8]) was more than 25 µM throughout. Moreover, the IC50 in test [2] (setting [9]) stood at 0.271 µM; in test [4] (setting [9]), 8.83 µM; in test [5] (setting [9]) it was 0.46 µM; in test [6] (setting [9]) it was 0.503 µM.

Take `O=C(Nc1nc(C2=CCN(Cc3ccccc3)CC2)cs1)c1cccn1Cc1ccncc1` [Compound A259]: the EC50 is more than 25 µM in test [1] (NCI-H929, 48 h) and more than 25 µM in test [3] (U-266, 48 h). In addition, the IC50 in test [2] (setting [9]) was 0.516 µM; in test [4] (setting [9]) it was more than 25 µM; in test [5] (setting [9]) it was 10.5 µM; in test [6] (setting [9]), 7.11 µM.

For the molecule `CC(C)(OCc1ccc(N=[N+]=[N-])cc1)c1csc(NC(=O)c2cccn2Cc2ccncc2C#N)n1` [Compound A308], the EC50 was 17.2 µM in test [1] (setting [7]) and more than 25 µM in test [3] (setting [8]). Further, the IC50 in test [2] (24 hr, doxycycline-induced) came to 0.879 µM; in test [4] (24 hr, doxycycline-induced), 13.5 µM; in test [5] (24 hr, doxycycline-induced), 2.37 µM; in test [6] (24 hr, doxycycline-induced), 1.69 µM.

`CC(C)OC(C)(C)c1csc(NC(=O)c2cccn2Cc2ccncc2Br)n1` [Compound A41, 1-((3-bromopyridin-4-yl)methyl)-N-(4-(2-isopropoxypropan-2-yl)thiazol-2-yl)-1H-pyrrole-2-carboxamide]: the EC50 is 9.52 µM in test [1] (setting [7]) and more than 25 µM in test [3] (setting [8]). The IC50 in test [2] (setting [9]) worked out at 0.878 µM; in test [4] (setting [9]), 12 µM; in test [5] (setting [9]), 1.98 µM; in test [6] (setting [9]) it was 2.39 µM.

In general, EC50 refers to the concentration at which the effect is half-maximal.
